Assay results as given in patent publication US12473295B2, “Substituted straight chain spiro derivatives” (Janssen Pharmaceutica NV, priority 2019, dated 2025).
Structures can show the parent of a compound that is named as a salt.

Columns and labels:
KO-52 cells = test: Proliferation assay (spheroid growth, 8 days), KO-52 control cell line; type: cell-based, human; details: Homo sapiens, […], read-out: spheroid assay_OneTime KO-52 IC50
Method: The anti-proliferative effect of menin/MLL protein/protein interaction inhibitor test compounds was assessed in human leukemia cell lines. The cell line MOLM14 harbors a MLL translocation and expresses the MLL fusion protein MLL-AF9, respectively, as well as the wildtype protein from the second allele. OCI-AML3 cells that carry the NPM1c gene mutation were also tested. […] KO-52 was used as a control cell line containing two MLL (KMT2A) wildtype alleles in order to exclude compounds that display general cytotoxic effects.
KO-52 and OCI-AML3 cell lines were propagated in alpha-MEM (Sigma Aldrich) supplemented with 20% heat-inactivated fetal bovine serum (HyClone), 2 mM L-glutamine (Sigma Aldrich) and 50 μg/ml gentamycin (Gibco).
In order to assess the anti-proliferative effects, 200 MOLM14 cells, 200 OCI-AML3 cells or 300 KO-52 cells were seeded in 200 μl media per well in […] round bottom, ultra-low attachment plates (Costar, catalogue number 7007). Cell seeding numbers were chosen based on growth curves to ensure linear growth throughout the experiment. Test compounds were added at different concentrations and the DMSO content was normalized to 0.3%. Cells were incubated for 8 days at 37° C. and 5% CO2. Spheroid like growth was measured in real-time by live-cell imaging (IncuCyteZOOM, Essenbio, 4× objective) acquiring images at day 8. Confluence (%) as a measure of spheroid size was determined using an integrated analysis tool.
In order to determine the effect of the test compounds over time, the confluence in each well as a measure of spheroid size, was calculated. Confluence of the highest dose of a reference compound was used as baseline for the LC (Low control) and the confluence of DMSO treated cells was used as 0% cytotoxicity (High Control, HC).
GraphPad Prism(version 7.00) was used to calculate the IC50. Dose-response equation was used for the plot of % Effect vs Log 10 compound concentration with a variable slope and fixing the maximum to 100% and the minimum to 0%.

OCI-AML3 cells = test: Proliferation assay (spheroid growth, 8 days), OCI-AML3; type: cell-based, human; details: Homo sapiens, OCI-AML-3, […], OCI-AML3, 8 days
Procedure, shortened: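 Cells were seeded at 200 (MOLM14, OCI-AML3) or 300 (KO-52) per well in ultra-low attachment round-bottom plates with compounds at several concentrations, 0.3% DMSO, and grown 8 days at 37° C. Spheroid confluence was imaged on day 8; IC50 came from a variable-slope fit normalized to DMSO and high-dose reference compound.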

[1] = molecular target: menin/MLL (terbium chelate-labeled menin, FITC-MBM1 peptide) (Homo sapiens (Human), UniProt O00255); test: Menin/MLL homogenous time-resolved fluorescence (HTRF) assay; type: binding; details: HTRF-30 min incubation IC50, 30 min incubation;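 note: IC50 from percent inhibition of HTRF signal, normalized between wells without competitor and wells with a saturating competitor that displaces FITC-MBM1 from His-tagged menin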
Sequence of menin/MLL (terbium chelate-labeled menin, FITC-MBM1 peptide) (O00255 other isoform, or with tags, fused parts or gaps): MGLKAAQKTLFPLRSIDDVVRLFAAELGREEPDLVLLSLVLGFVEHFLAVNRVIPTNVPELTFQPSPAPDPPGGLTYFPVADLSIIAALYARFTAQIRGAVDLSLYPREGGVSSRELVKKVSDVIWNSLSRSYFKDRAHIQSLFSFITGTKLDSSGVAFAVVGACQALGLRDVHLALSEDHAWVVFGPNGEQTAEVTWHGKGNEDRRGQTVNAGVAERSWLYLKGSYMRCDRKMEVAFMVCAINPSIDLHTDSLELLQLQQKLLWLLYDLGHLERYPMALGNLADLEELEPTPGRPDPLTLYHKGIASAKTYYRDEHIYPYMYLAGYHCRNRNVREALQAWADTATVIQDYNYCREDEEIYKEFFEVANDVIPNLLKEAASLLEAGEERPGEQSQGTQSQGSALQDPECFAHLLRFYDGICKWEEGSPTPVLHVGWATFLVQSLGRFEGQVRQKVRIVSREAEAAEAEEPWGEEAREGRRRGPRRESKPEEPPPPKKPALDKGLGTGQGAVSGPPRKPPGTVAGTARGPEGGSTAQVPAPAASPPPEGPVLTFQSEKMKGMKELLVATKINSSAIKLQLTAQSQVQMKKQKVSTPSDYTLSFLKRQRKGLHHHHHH

MOLM14 cells = test: Proliferation assay (spheroid growth, 8 days), MOLM14; type: cell-based, human; details: Homo sapiens, MOLM-14, […], MOLM14, 8 days; read-out: spheroid assay_OneTime MOLM14 IC50;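 note: spheroid size read as confluence by live-cell imaging, compounds added at a range of concentrations with 0.3% DMSO, DMSO-treated wells = 0%, highest reference dose = low control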
MEIS1 mRNA = MEIS1 mRNA expression assay (Quantigene Singleplex) in MOLM14 cells; type: cell-based, human; details: Homo sapiens, MOLM-14, 48 h, 48 hours incubation;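 note: MEIS1 transcript levels read by probe hybridization and normalized to RPL28 mRNA, with IC50 fitted to fold changes across a rising compound concentration series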

**Q.** `CCN(C(=O)c1cc(F)ccc1Oc1nncnc1N1CCC2(C1)CN([C@H](C[C@H](O)CN(C)C(C)C)C(C)C)C2)C(C)C` (single isomer, unassigned) [Compound 325, N-ethyl-5-fluoro-2-((5-(2-((3*R,5*S)-5-hydroxy-6-(isopropyl(methyl)amino)-2-methylhexan-3-yl)-2,6-diazaspiro[3.4]octan-6-yl)-1,2,4-triazin-6-yl)oxy)-N-isopropylbenzamide fumarate] was tested. Which IC50 (KO-52 cells) did it give?
**A.** > 15000 nM

**Q.** And the IC50 (OCI-AML3 cells)?
**A.** 190 nM

**Q.** What about the IC50 [1] of the same compound?
**A.** ~0.16 nM

**Q.** What about the IC50 (MOLM14 cells) of the same compound?
**A.** 16 nM

**Q.** What about the IC50 (MEIS1 mRNA) of the same compound?
**A.** 15 nM

**Q.** How did the IC50 (KO-52 cells) turn out when `CCN(C(=O)c1cc(F)ccc1Oc1nncnc1N1CCC2(C1)CN([C@H](CCCN(C)CC(C)(C)O)C(C)C)C2)C(C)C` [Compound 140, (R)-N-ethyl-5-fluoro-2-((5-(2-(6-((2-hydroxy-2-methylpropyl)(methyl)amino)-2-methylhexan-3-yl)-2,6-diazaspiro[3.4]octan-6-yl)-1,2,4-triazin-6-yl)oxy)-N-isopropylbenzamide fumarate] was run?
**A.** 5750 nM

**Q.** What about the IC50 (OCI-AML3 cells) of the same compound?
**A.** 330 nM

**Q.** What about the IC50 [1] of the same compound?
**A.** 0.093 nM

**Q.** And the IC50 (MOLM14 cells)?
**A.** 110 nM

**Q.** And the IC50 (MEIS1 mRNA)?
**A.** 28 nM

**Q.** For `CCN(C)C[C@@H](O)C[C@H](C(C)C)N1CC2(CCN(c3ncnnc3Oc3ccc(F)cc3C(=O)N(C(C)C)C(C)C)C2)C1` (single isomer, unassigned) [Compound 391, 2-((5-(2-((3*R,5*S)-6-(ethyl(methyl)amino)-5-hydroxy-2-methylhexan-3-yl)-2,6-diazaspiro[3.4]octan-6-yl)-1,2,4-triazin-6-yl)oxy)-5-fluoro-N,N-diisopropylbenzamide fumarate], which IC50 (KO-52 cells) is on record?
**A.** > 15000 nM

**Q.** What about the IC50 (OCI-AML3 cells) of the same compound?
**A.** 2100 nM

**Q.** What about the IC50 [1] of the same compound?
**A.** 0.9 nM

**Q.** What about the IC50 (MOLM14 cells) of the same compound?
**A.** 490 nM

**Q.** And the IC50 (MEIS1 mRNA)?
**A.** 160 nM

**Q.** Which IC50 (KO-52 cells) does the source give for `CCN(C(=O)c1cc(F)ccc1Oc1nncnc1N1CCC2(C1)CN([C@H](CCN(C)CCCO)C(C)C)C2)C(C)C` (single isomer, unassigned) [Compound 274, (*R)—N-ethyl-5-fluoro-2-((5-(2-(1-((3-hydroxypropyl)(methyl)amino)-4-methylpentan-3-yl)-2,6-diazaspiro[3.4]octan-6-yl)-1,2,4-triazin-6-yl)oxy)-N-isopropylbenzamide] here?
**A.** > 15000 nM

**Q.** What about the IC50 (OCI-AML3 cells) of the same compound?
**A.** 640 nM

**Q.** What about the IC50 [1] of the same compound?
**A.** 0.38 nM

**Q.** What about the IC50 (MOLM14 cells) of the same compound?
**A.** 200 nM

**Q.** What about the IC50 (MEIS1 mRNA) of the same compound?
**A.** 230 nM

**Q.** With `CCNCC[C@H](C(C)C)N1CC2(CCN(c3ncnnc3Oc3ccc(F)cc3C(=O)N(CC)C(C)C)C2)C1` (single isomer, unassigned) [Compound 272, (*R)—N-ethyl-2-((5-(2-(1-(ethylamino)-4-methylpentan-3-yl)-2,6-diazaspiro[3.4]octan-6-yl)-1,2,4-triazin-6-yl)oxy)-5-fluoro-N-isopropylbenzamide formate] as the compound, how does the IC50 (KO-52 cells) read?
**A.** > 15000 nM

**Q.** And the IC50 (OCI-AML3 cells)?
**A.** 440 nM

**Q.** What about the IC50 [1] of the same compound?
**A.** 0.58 nM

**Q.** What about the IC50 (MOLM14 cells) of the same compound?
**A.** 130 nM

**Q.** And the IC50 (MEIS1 mRNA)?
**A.** 170 nM

**Q.** With `CCN(C(=O)c1cc(F)ccc1Oc1nncnc1N1CCC2(C1)CN([C@H](CCCN(C)[C@H](C)CC(=O)N(C)C)C(C)C)C2)C(C)C` (single isomer, unassigned) [Compound 184, 2-((5-(2-((R)-6-(((*R)-4-(dimethylamino)-4-oxobutan-2-yl)(methyl)amino)-2-methylhexan-3-yl)-2,6-diazaspiro[3.4]octan-6-yl)-1,2,4-triazin-6-yl)oxy)-N-ethyl-5-fluoro-N-isopropylbenzamide fumarate] as the compound, how does the IC50 (KO-52 cells) read?
**A.** 3000 nM

**Q.** And the IC50 (OCI-AML3 cells)?
**A.** 190 nM

**Q.** And the IC50 [1]?
**A.** ~0.36 nM

**Q.** What about the IC50 (MOLM14 cells) of the same compound?
**A.** 230 nM

**Q.** And the IC50 (MEIS1 mRNA)?
**A.** 110 nM

**Q.** Which results are given for `CCN(C(=O)c1cc(F)ccc1Oc1nncnc1N1CCC2(C1)CN([C@H](CCNCCO)C(C)C)C2)C(C)C` (single isomer, unassigned) [Compound 268, (*R)—N-ethyl-5-fluoro-2-((5-(2-(1-((2-hydroxyethyl)amino)-4-methylpentan-3-yl)-2,6-diazaspiro[3.4]octan-6-yl)-1,2,4-triazin-6-yl)oxy)-N-isopropylbenzamide fumarate]?
**A.** IC50 (KO-52 cells): > 15000 nM; IC50 (OCI-AML3 cells): 530 nM; IC50 [1]: 0.29 nM; IC50 (MOLM14 cells): 200 nM; IC50 (MEIS1 mRNA): 340 nM
